Experimental data: the SangsterLogP compilation

What was measured:
[1] = method code SF-AS, from DOI: 10.1002/jps.2600630206, PMID: 4204981
[2] = not given; remark: listed apart in the source
[3] = method code SF-AS, from DOI: 10.1016/j.bmc.2011.10.017, PMID: 22094277; details: pH 7.4
[4] = not given; remark: listed apart in the source
[5] = method code SF-AS, from DOI: 10.1021/jf60167a006
[6] = method code SF, from DOI: 10.1016/s0969-8051(99)00063-3, PMID: 10628565; details: pH 7.4
[7] = method code SF-AS, from DOI: 10.1021/acs.jmedchem.5b01455, PMID: 26523333; details: pH 7.4
[8] = method code SF-AS, from DOI: 10.1039/ft9959100995
[9] = not given; remark: listed apart in the source
[10] = not given; remark: listed apart in the source
[11] = method code SF-AS, from DOI: 10.1016/j.ejps.2010.09.003, PMID: 20854904; details: pH 10.0
[12] = method code SF, from DOI: 10.1071/sr9810061
[13] = method code SF-GLC, from DOI: 10.1007/s002679900238, PMID: 10486045
[14] = method code SF-HPLC, from DOI: 10.1248/cpb.37.2861, PMID: 2611948; details: pH 4.0
[15] = method code SF-GLC, from DOI: 10.1007/bf00224496
[16] = method code SF-AS, from DOI: 10.1021/bi00405a042
[17] = method code SF-AS, from DOI: 10.1016/0378-5173(84)90231-x
[18] = not given; remark: listed apart in the source
[19] = method code SF-AS, from KuchaÅ™, M.; Rejholec, V.; Miller, V. (1985). Chromatographically determined lipophilicity and intramolecular interactions of bioactive compounds. Pharmacochemistry Library, 8, 321-331.; details: pH 3.4
[20] = not given; remark: listed apart in the source
[21] = method code SF-RC, from DOI: 10.1016/j.nucmedbio.2008.01.001, PMID: 18355684; details: pH 7.4
[22] = method code SF-HPLC, from DOI: 10.1016/s0021-9673(01)81976-2, PMID: 4066822
[23] = method code SF-AS, from Jha, T.; Debnath, A.; Mazumdar, A.; Sengupta, C.; De, A. (1986). Hansch analysis of antineoplastic agents, 5-N-substituted-2-p-substituted benzenesulfonyl-L-glutamines. Ind. J. Chem., Sect. B, …
[24] = not given; remark: listed apart in the source
[25] = method code SF, from DOI: 10.1016/s0960-894x(01)80459-5
[26] = method code SF, from DOI: 10.1016/j.nucmedbio.2004.02.004, PMID: 15219281
[27] = not given; remark: listed apart in the source
[28] = not given; remark: listed apart in the source
[29] = not given; remark: listed apart in the source
[30] = not given; remark: listed apart in the source
[31] = method code SF-AS, from DOI: 10.1021/jm991080o, PMID: 10579844; details: pH 7.4
[32] = pH 7.4
[33] = not given; remark: listed apart in the source
[34] = not given; remark: listed apart in the source
[35] = not given; remark: listed apart in the source
[36] = method code SF-AS, from DOI: 10.1515/znc-1987-7-832, PMID: 2961152
[37] = method code SF-AS, from DOI: 10.1016/s0021-9673(00)82600-x

## CCNc1nc(Cl)nc(NC(C)(C)C)n1
other
  logP: 3.06

## CCC(C)(Oc1ccc(Cl)cc1)C(=O)O (stereo unspecified)
[1]
  logP: 2.9

## CC(C)=CCCC(C)CCO (stereo unspecified)
[2]
  logP: 3.38

## CCOC(=O)[C@@]1(C)[C@H](CO)CC=[N+]1[O-]
[3]
  logD: -1.3

## CC[C@@H](CO)NCCN[C@@H](CC)CO
[4]
  logP: -0.4

## CCOP(=O)(OCC)Oc1ccccc1
[5]
  logP: 1.64

## CC(=O)OCC1C(OC(C)=O)C(OC(C)=O)C(OC(C)=O)CN1Cc1cccc(I)c1 (stereo unspecified)
[6]
  logD: 3.16

## CC(F)(F)Cc1c[nH]c2ccccc12
[7]
  logD: 3.3

## CC(=O)OCCOCn1cnc2cnc(N)nc21
[8]
  logP: -0.61

## CCC(O)(C(N)=O)c1ccccc1 (stereo unspecified)
[9]
  logP: 1.2

## N#Cc1ccc(/C=C2\CCCc3ccccc3C2=O)cc1
[10]
  logP: 4.27

## O=C(CCN1CCOCC1)c1ccccc1
[11]
  logD: 1.24

## CCOP(=O)(OCC)SCS(=O)(=O)C(C)(C)C
[12]
  logP: 2.76

## CC1(C)C2CCC1(C)C(OCCO)C2 (stereo unspecified)
[13]
  logP: 3.32

## O=c1[nH]c(=O)n(Cc2ccc(Cl)cc2)cc1F
[14]
  logD: 1.64

## OC[C@@H]1[C@@H](O)[C@H](O)[C@@H](O)CN1C/C=C/I
[6]
  logD: -0.37

## C=C(C)C1CC=C(C)CC1 (stereo unspecified)
[15]
  logP: 4.4

## CNC(=O)CCc1c[nH]c2ccccc12
[16]
  logP: 1.23

## CC(C)(C)[N+]([O-])=Cc1ccccc1
[17]
  logP: 1.22

## Cc1[nH]cnc1CSCCNc1cc(=O)cc[nH]1
[18]
  logP: 0.8

## Cc1[nH]cnc1CSCCNC1=NC(=O)CN1
[18]
  logP: -0.5

## CC(O)(C(=O)O)c1ccccc1 (stereo unspecified)
[19]
  logD: 0.83

## Oc1ccc(CCOCC2CC2)cc1
[20]
  logP: 3

## CN1CCC=C(c2nsnc2SCCCF)C1
[21]
  logD: 2.4

## COC1=C(OC)C(=O)C(OC)=C(OC)C1=O
[22]
  logP: 0.41

## CCCCNC(=O)CCC(NS(=O)(=O)c1ccc(C)cc1)C(=O)O (stereo unspecified)
[23]
  logP: 0.02

## Cc1cccc(C2CNCCO2)c1 (stereo unspecified)
[24]
  logP: 1.52

## Nc1ncnc2c1ncn2[C@@H]1O[C@H](CO)C[C@H]1O
[25]
  logP: -0.65

## O=c1[nH]c(=O)n(Cc2ccccc2)cc1F
[14]
  logD: 0.89

## O=c1[nH]c(=O)n(C2CC(O)C(CO)O2)cc1/C=C/I (stereo unspecified)
[26]
  logP: 1.1

## O=C(CCCCCO[N+](=O)[O-])Oc1ccccc1C(=O)O
[27]
  logP: 2.49

## CC(=O)Nc1ncc2ncn(COCCOC(C)=O)c2n1
[8]
  logP: -1.05

## COc1cccc(C(=O)O)c1OC
[28]
  logP: 1.94

## O=C(O)CCCC(=O)c1ccccc1
[19]
  logD: 1.49

## Clc1cccc2cccc(Cl)c12
[29]
  logP: 4.41

## O=C[C@H](NC(=O)N(CCCl)N=O)[C@@H](O)[C@H](O)[C@H](O)CO
[30]
  logP: -1.02

## CCNc1nc(Cl)nc(N(CC)CC)n1
other
  logP: 3.07

## CN(C)CCOC(=O)c1ccccc1
[11]
  logD: 1.76

## CCC(O)c1c(O)c(=O)cc(C)n1C (stereo unspecified)
[31]
  logD: -0.13

## CC(=O)Oc1ccccc1C(=O)OCS(C)=O (stereo unspecified)
[32]
  logD: 0.11

## FCC(F)Cc1c[nH]c2ccccc12 (stereo unspecified)
[7]
  logD: 2.54

## COC1=CC(=O)C(OC)=C(OC)C1=O
[22]
  logP: 0.22

## Cc1nccn1CC1CCc2c(c3ccccc3n2C)C1=O (stereo unspecified)
[4]
  logP: 1.92

## CC(C)=CCC/C(C)=C/C=O
[2]
  logP: 3.76

## CC(C)N1CCOC(c2cccc(Cl)c2)C1 (stereo unspecified)
[24]
  logP: 3.27

## CCOP(=O)(OCC)Oc1c(Cl)cc(SC)cc1Cl
[5]
  logP: 3.72

## COc1ncnc2c1ncn2[C@@H]1O[C@H](CO)C[C@H]1F
[33]
  logP: 0.25

## CCC(O)(CC(N)=O)c1ccccc1 (stereo unspecified)
[9]
  logP: 1.83

## C=CC(=C)CCC=C(C)C
[15]
  logP: 4.5

## CC(=O)Oc1ccccc1C(=O)OCCN(C)C(C)=O
[32]
  logD: 1.46

## CC(C)OC(=O)[C@@]1(C)[C@H](CO)CC=[N+]1[O-]
[3]
  logD: -0.96

## CCc1c(O)c(=O)ccn1CCOC(C)=O
[31]
  logD: -0.24

## CCOP(=O)(OCC)SCS(=O)C(C)(C)C (stereo unspecified)
[12]
  logP: 2.66

## NC(=O)CCC(NS(=O)(=O)c1ccccc1)C(=O)O (stereo unspecified)
[23]
  logP: 0.58

## CCCC(C)(COC(N)=O)COC(N)=O
[10]
  logP: 1.12

## Clc1cc2c(Cl)c(Cl)c(Cl)c(Cl)c2cc1Cl
[34]
  logP: 6.77

## CC(C)(C)[N+]([O-])=Cc1ccc(F)cc1
[17]
  logP: 1.42

## CNC(=O)CCc1ccccc1
[16]
  logP: 1.17

## O=C(CCCO[N+](=O)[O-])Oc1ccccc1C(=O)O
[27]
  logP: 1.95

## Cc1ncc(CNC(=O)N(CCCl)N=O)c(N)n1
[30]
  logP: 0.39

## CN1CCC=C(c2nsnc2SCCC(F)(F)F)C1
[21]
  logD: 2.9

## Clc1cc2c(Cl)ccc(Cl)c2c(Cl)c1Cl
[34]
  logP: 6.46

## Clc1cc2ccccc2cc1Cl
[29]
  logP: 4.71

## CC(=O)c1ccc2cccccc1-2
[35]
  logP: 2.87

## COCCc1ccc(O)cc1
[20]
  logP: 1.85

## CCCCCCCCCCCCCCCCOP(=O)(OCC1CC(O)C(n2cnc3c(N)ncnc32)O1)OCC1OC(n2cc(C)c(=O)[nH]c2=O)CC1N=[N+]=[N-] (stereo unspecified)
[25]
  logP: 3.26

## CCCOC(=O)c1ccccc1
[28]
  logP: 3.23

## O=C(O)C1CCc2ccccc2O1 (stereo unspecified)
[1]
  logP: 1.9

## CN(C(=O)N(CCCl)N=O)C1CC(C)(C)N(O)C(C)(C)C1
[36]
  logP: 1.7

## OC[C@@H]1C[C@@H](F)[C@H](n2cnc3c(Cl)ncnc32)O1
[33]
  logP: 0.32

## O=c1[nH]c(=O)n([C@@H]2O[C@H](CO)[C@@H](O)[C@H]2F)cc1/C=C/I
[26]
  logP: 1.21

## COc1cnn(-c2ccccc2)c(=O)c1Br
[37]
  logP: 1.42

## O=Cc1ccc2cccccc1-2
[35]
  logP: 2.64

## CC1CCC(NC(=O)N(CCCl)N=O)CC1 (stereo unspecified)
[36]
  logP: 3.25

## CC1=CCC(C(C)C)=CC1
[13]
  logP: 4.5

## CN(C)c1cnn(-c2ccccc2)c(=O)c1Cl
[37]
  logP: 1.55
